Laboratory results from article PMC6891541, “α-Glucosidase and Pancreatic Lipase Inhibitory Activities of Diterpenes from Indian Mango Ginger (Curcuma amada Roxb.) and Its Derivatives” (Molecules, 2019).

Key:
[1] = system: cancer cell lines such as MCF-7, KB and A549; parameters: method as in PMID 21629182; settings: cited from earlier work
[2] = target: T1, porcine pancreas lipase (Sus scrofa, UniProt P00591); assay: pancreatic lipase inhibition, 4-methylumbelliferyl oleate, HPLC fluorescence detection of 4-MU; format: biochemical; settings: for IC50: porcine pancreas lipase, 4-methylumbelliferyl oleate substrate, read-out: IC Lipase
T1 construct: from tissue; host or cells: porcine pancreas
T1 sequence (P00591 1-450): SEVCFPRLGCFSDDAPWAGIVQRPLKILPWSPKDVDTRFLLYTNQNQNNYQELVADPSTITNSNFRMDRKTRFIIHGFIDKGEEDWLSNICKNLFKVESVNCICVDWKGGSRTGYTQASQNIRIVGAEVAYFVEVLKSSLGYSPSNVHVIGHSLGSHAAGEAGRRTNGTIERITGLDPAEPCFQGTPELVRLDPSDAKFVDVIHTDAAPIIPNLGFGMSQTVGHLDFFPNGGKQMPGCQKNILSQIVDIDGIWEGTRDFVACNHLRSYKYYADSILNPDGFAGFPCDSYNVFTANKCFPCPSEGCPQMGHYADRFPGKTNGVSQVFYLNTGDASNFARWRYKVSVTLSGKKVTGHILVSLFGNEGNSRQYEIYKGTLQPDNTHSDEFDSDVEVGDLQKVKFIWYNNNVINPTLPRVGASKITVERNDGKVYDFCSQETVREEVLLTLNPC
Protocol: For pancreatic lipase inhibitory enzymatic assays, a slightly modified method from that described in a previous paper was used. […] The test sample solution (50 µL) was added to 50 unit/mL of porcine pancreas lipase suspension (50 µL). […] The enzymatic reaction was carried out at 37 °C for 120 min and the reaction was terminated by the addition of citrate buffer (200 µL). After that, the intensity of fluorescent enzymatic product 4-MU was measured by HPLC with fluorescence detection. […] The inhibition percentage was calculated using Equation (2):Inhibition% = [Area (test sample) − Area (sample blank)/Area (control)] × 100(2)
Tetrahydrolipstatin was used as a positive control (Figure 5 and Figure 6).

[3] = target: rat intestinal α-glucosidase; assay: α-glucosidase inhibition, rat intestinal acetone powder, pNPG hydrolysis; format: biochemical; settings: for IC50: pNPG substrate, read-out: IC α-Glucosidase; for α-glucosidase inhibitory activity (in words): rat intestinal α-glucosidase
Protocol: The α-glucosidase activity was calculated by measuring the amount of p-nitrophenol hydrolyzed from pNPG by α-glucosidase. Tested enzyme was prepared using α-glucosidase included in commercial rat intestinal acetone powder (Sigma-Aldrich). […] Sonication was performed 20 times each for durations of 10 s. After centrifugation at 7000× g for 15 min at 4 °C, the supernatant was separated from the pellet. The supernatant was diluted two-fold with 0.1 M phosphate buffer at pH 6.9. The test sample was dissolved in DMSO and then diluted in the same volume of 0.1 M phosphate buffer. The test sample solution (10 µL) was added to a crude enzyme suspension (40 µL). The solution was preincubated at 37 °C for 10 min, then 2.5 mM of pNPG dissolved in 0.1 M phosphate buffer (50 µL) was added to the reaction mixture as the substrate. The enzymatic reaction was carried out at 37 °C for 30 min and the reaction was terminated by the addition of 0.1 M Na2CO3 aq. (900 µL). The absorbance at 405 nm was determined. […] The acarbose was used as a positive control (Figure 4).

[4] = system: human 5-lipoxygenase; settings: cited from earlier work
[5] = system: COX2; parameters: method as in doi:10.1016/j.foodchem.2010.06.064; settings: cited from earlier work
[6] = system: Hep G2 cells; parameters: method as in PMID 30034597; settings: cited from earlier work
[7] = system: α-glucosidase; parameters: method as in PMID 18179176; settings: cited from earlier work
[8] = α-glucosidase from rat intestine acetone powder

| Molecule | IC50 [2] [µM] | IC50 [3, 8] [µM] | α-glucosidase inhibitory activity (in words) [3] | other results |
| --- | --- | --- | --- | --- |
| C=C1CC[C@H]2C(C)(C)CCC[C@]2(C)[C@H]1CC=C(C=O)CC(=O)O (stereo in doubt) [Compound 8, Zerumin A] | 73.4 | – | – | cytotoxicity against cancer cell lines (in words) [1]: strong cytotoxicity |
| C[C@H]1O[C@H](O[C@H]2[C@H](O)[C@@H](O)[C@@H](O[C@H]3[C@H](O)[C@@H](O)C(O)O[C@@H]3CO)O[C@@H]2CO)[C@H](O)[C@@H](O)[C@@H]1N[C@H]1C=C(CO)[C@@H](O)[C@H](O)[C@H]1O (stereo partly drawn) [Acarbose, acarbose, reference compound] | – | 380 | – | IC50 α-glucosidase [3, 8]: 247 ppm |
| C=C1CCC2C(C)(C)CCC[C@]2(C)[C@H]1C/C=C(/C=O)CC=O (stereo partly drawn) [Compound 1, (E)-Labda-8(17),12-diene-15,16-dial] | – | 8740 | strongest rat intestinal α-glucosidase inhibitory activity | human 5-lipoxygenase inhibition (in words) [4]: inhibited human 5-lipoxygenase; cytotoxicity against cancer cell lines (in words) [1]: strong cytotoxicity; inhibition of COX2 compared with COX1 (in words) [5]: greater inhibition of COX2 than COX1; cytotoxicity in Hep G2 cells (in words) [6]: without cytotoxicity |
| C=C1CCC2C(C)(C)CCCC2(C)C1C=CC(C)=O (stereo not drawn) [Compound 2] | 14.8 | 17500 | strong α-glucosidase inhibition | cytotoxicity against cancer cell lines (in words) [1]: did not show cytotoxicity |
| C=C1CCC2C(C)(C)CCC[C@]2(C)[C@H]1C/C=C(/CO)CCO (stereo partly drawn) [Compound 4, (E)-Labda-8(17),12-diene-15,16-diol] | 258 | 11600 | strong α-glucosidase inhibition | – |
| C=C1CCC2C(C)(C)CCC[C@]2(C)[C@H]1C/C=C(\CCOC(C)=O)COC(C)=O (stereo partly drawn) [Compound 5, 15,16-Diacetoxyl-(E)-labda-8(17),12-diene] | 111 | – | – | – |
| C=C1CCC2C(C)(C)CCC[C@]2(C)[C@H]1C/C=C(/CO)CCOC(C)=O (stereo partly drawn) [Compound 6, 15-Acetoxy-(E)-labda-8(17),12-diene-16-ol] | 102 | – | – | – |
| C=C1CCC2C(C)(C)CCC[C@]2(C)[C@H]1C/C=C(\CCO)COC(C)=O (stereo partly drawn) [Compound 7, 16-Acetoxy-(E)-labda-8(17),12-diene-15-ol] | 222 | – | – | – |
| C=C1CCC2C(C)(C)CCC[C@]2(C)[C@H]1C/C=C(\CC(=O)O)C(=O)O (stereo partly drawn) [Compound 9, (E)-Labda-8(17),12-diene-15,16-dicarboxylic acid] | 76.8 | – | – | – |
| C=C1CCC2C(C)(C)CCC[C@]2(C)[C@H]1C/C=C(\CC(=O)OC)C(=O)OC (stereo partly drawn) [Compound 10, (E)-Labda-8(17),12-diene-15,16-dimethylester] | 119 | – | – | – |
| CCCCCCCCCCC[C@@H](C[C@@H]1OC(=O)[C@H]1CCCCCC)OC(=O)[C@H](CC(C)C)NC=O [Tetrahydrolipstatin, reference compound] | – | – | – | Lipase inhibition ([2]; at 5.0 Nm, positive control): 94% (5.0 Nm) |
| CC1(C)CCC[C@]2(C)[C@@H](C=O)C(C=O)=CC[C@@H]12 [polygodial, reference compound] | – | – | – | human 5-lipoxygenase inhibition (in words) [4]: inhibited human 5-lipoxygenase; α-glucosidase inhibition (in words) [7]: did not show α-glucosidase inhibition |
| Albicanal [Compound 3] | 666 | – | did not show any such activity | – |
